Measured values taken from patent US10765114B2, “4-amino-6-(pyridyl and 2-substitutedphenyl)-picolinates and 6-amino-2-(pyridyl and 2-substitutedphenyl)-pyrimidine-4-carboxylates and their use as herbicides” (Dow AgroSciences LLC, priority 2013, dated 2020).

Assays:
LOLSS = test: Post-Emergent Test III (Wheat and Barley); type: in vivo; settings: for GR50, LOLSS: effective dose for growth reduction of 50 percent; for GR50, LOLSS / GR80, LOLSS: probit analysis; for GR80, LOLSS: effective dose for growth reduction of 80 percent; for pest or weed control at 35 g/ha / pest or weed control at 70 g/ha / pest or weed control at 140 g/ha: post-emergence, 504 h, postemergence, read-out: Visual Growth Reduction (%) 21 Days After Application, LOLSS; for pest or weed control at 35 g/ha: 35 g ai/ha; for pest or weed control at 70 g/ha: 70 g ai/ha; for pest or weed control at 140 g/ha: 140 g ai/ha
Outline: (§1)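 Plants grown in greenhouse (14 h photoperiod, ~18/17 °C day/night) to second or third true leaf stage were sprayed post-emergence at 187 L/ha in acetone/DMSO-based spray solution with crop oil and surfactant, top rate plus ½× to 1/16× dilutions. Visual injury (0–100%) versus untreated plants was scored after 21 days.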

BRSSS = test: Post-Emergent Test III (Wheat and Barley); type: in vivo; settings: for Visual Growth Reduction (%) 21 Days After Application, BRSSS: BRSSS oil seed rape (Brassica napus), post-emergent
Outline: as §1

[1] = test system: LAMPU (purple deadnettle); test: Post-Emergent Test III (Wheat and Barley); type: in vivo, Lamium purpureum; settings: for Visual Growth Reduction (%) 21 Days After Application, LAMPU: LAMPU purple deadnettle (Lamium purpureum), post-emergent
Method: (§2) Seeds of the desired test plant species were planted in Sun Gro MetroMix® 306 planting mixture, which typically has a pH of 6.0 to 6.8 and an organic matter content of about 30 percent, in plastic pots with a surface area of 103.2 square centimeters (cm^2). When required to ensure good germination and healthy plants, a fungicide treatment and/or other chemical or physical treatment was applied. The plants were grown for 7-36 days in a greenhouse with an approximate 14 h photoperiod which was maintained at about 18° C. during the day and 17° C. during the night. Nutrients and water were added on a regular basis and supplemental lighting was provided with overhead metal halide 1000-Watt lamps as necessary. The plants were employed for testing when they reached the second or third true leaf stage.
(§3) A weighed amount, determined by the highest rate to be tested, of each test compound was placed in a 25 mL glass vial and was dissolved in 4 mL of a 97:3 v/v mixture of acetone and DMSO to obtain concentrated stock solutions. […] The concentrated stock solutions obtained were diluted with 20 mL of an aqueous mixture containing acetone, water, isopropyl alcohol, DMSO, Agri-Dex crop oil concentrate, and X-77 surfactant in a 48:39:10:1.5:1.5:0.02 v/v ratio to obtain spray solutions containing the highest application rates. Additional application rates were obtained by serial dilution of 12 mL of the high rate solution into a solution containing 2 mL of 97:3 v/v mixture of acetone and DMSO and 10 mL of an aqueous mixture containing acetone, water, isopropyl alcohol, DMSO, Agri-Dex crop oil concentrate, and X-77 surfactant in a 48:39:10:1.5:1.5:0.02 v/v ratio to obtain ½×, ¼×, ⅛× and 1/16× rates of the high rate. Compound requirements are based upon a 12 mL application volume at a rate of 187 liters per hectare (L/ha). Formulated compounds were applied to the plant material with an overhead Mandel track sprayer equipped with 8002E nozzles calibrated to deliver 187 L/ha over an application area of 0.503 square meters at a spray height of 18 inches (43 cm) above the average plant canopy height. Control plants were sprayed in the same manner with the solvent blank.
(§4) The treated plants and control plants were placed in a greenhouse as described above and watered by subirrigation to prevent wash-off of the test compounds. After 21 dAYS, the condition of the test plants as compared with that of the untreated plants was determined visually and scored on a scale of 0 to 100 percent where 0 corresponds to no injury and 100 corresponds to complete kill and presented as indicated in Table A.
(§5) By applying the well-accepted probit analysis as described by J. Berkson in Journal of the American Statistical Society, 48, 565 (1953) and by D. Finney in “Probit Analysis” Cambridge University Press (1952), herbicidal injury of a specific compound at various rates can be used to calculate GR10, GR20, GR50, GR80 and GR90 values, which are defined as growth reduction factors that correspond to the effective dose of herbicide required to provide plant growth reduction (GR) of 10 percent, 20 percent, 50 percent, 80 percent and 90 percent, respectively. Probit analysis was applied to data collected from multiple dose rates of individual compounds utilizing the procedures explained in the following examples. The analysis of those dose rates is captured in the following tables.

[2] = test system: test plant species in Wheat and Barley; test: Post-Emergent Test III (Wheat and Barley), further species of Table 9; type: in vivo; settings: for Visual Growth Reduction (%) 21 Days After Application, CHEAL: CHEAL lambsquarters (Chenopodium album); for Visual Growth Reduction (%) 21 Days After Application, CHEAL / Visual Growth Reduction (%) 21 Days After Application, GALAP / Visual Growth Reduction (%) 21 Days After Application, STEME / Visual Growth Reduction (%) 21 Days After Application, VIOTR: post-emergent; for Visual Growth Reduction (%) 21 Days After Application, GALAP: GALAP cleavers (Galium aparine); for Visual Growth Reduction (%) 21 Days After Application, STEME: STEME common chickweed (Stellaria media); for Visual Growth Reduction (%) 21 Days After Application, VIOTR: VIOTR wild pansy (Viola tricolor)
Method: as §2, §3, §4, §5

## Nc1c(F)c(-c2ccc(C3CC3)nc2)nc(C(=O)O)c1Cl [Compound 36, 4-amino-5-chloro-6′-cyclopropyl-3-fluoro-[2,3′-bipyridine]-6-carboxylic acid]
LOLSS
  GR50, LOLSS: 44 g ai/ha
  GR80, LOLSS: 131 g ai/ha
  pest or weed control at 35 g/ha: 45 to 59%
  pest or weed control at 70 g/ha: 45 to 59%

## COC(=O)c1nc(-c2ccc(OC(F)F)nc2)c(F)c(N)c1Cl [Compound 71]
LOLSS
  GR50, LOLSS: >140 g ai/ha
  GR80, LOLSS: >140 g ai/ha
  pest or weed control at 35 g/ha: 0 to 29%
  pest or weed control at 70 g/ha: 0 to 29%
  pest or weed control at 140 g/ha: 30 to 44%

## COC(=O)c1nc(-c2ccc(Br)nc2)c(F)c(N)c1Cl [Compound 22, methyl 4-amino-6′-bromo-5-chloro-3-fluoro-[2,3′-bipyridine]-6-carboxylate]
BRSSS; 17.5 g ai/ha
  Visual Growth Reduction (%) 21 Days After Application, BRSSS: D (60-74)
BRSSS; 35 g ai/ha
  Visual Growth Reduction (%) 21 Days After Application, BRSSS: B (85-94)
BRSSS; 70 g ai/ha
  Visual Growth Reduction (%) 21 Days After Application, BRSSS: B (85-94)
BRSSS; BRSSS, growth reduction of 50%, probit analysis, 21 days
  GR50, BRSSS: 4 g ai/ha
BRSSS; BRSSS, growth reduction of 80%, probit analysis, 21 days
  GR80, BRSSS: 20 g ai/ha
BRSSS; BRSSS, growth reduction of 90%, probit analysis, 21 days
  GR90, BRSSS: 46 g ai/ha
[1]; 17.5 g ai/ha
  Visual Growth Reduction (%) 21 Days After Application, LAMPU: A (95-100)
[1]; 35 g ai/ha
  Visual Growth Reduction (%) 21 Days After Application, LAMPU: A (95-100)
[1]; 70 g ai/ha
  Visual Growth Reduction (%) 21 Days After Application, LAMPU: A (95-100)
[1]; LAMPU, growth reduction of 50%, probit analysis, 21 days
  GR50, LAMPU: 1 g ai/ha
[1]; LAMPU, growth reduction of 80%, probit analysis, 21 days
  GR80, LAMPU: 6 g ai/ha
[1]; LAMPU, growth reduction of 90%, probit analysis, 21 days
  GR90, LAMPU: 11 g ai/ha
[2]; 17.5 g ai/ha
  Visual Growth Reduction (%) 21 Days After Application, CHEAL: A (95-100)
  Visual Growth Reduction (%) 21 Days After Application, GALAP: D (60-74)
  Visual Growth Reduction (%) 21 Days After Application, STEME: F (30-44)
  Visual Growth Reduction (%) 21 Days After Application, VIOTR: A (95-100)
[2]; 35 g ai/ha
  Visual Growth Reduction (%) 21 Days After Application, CHEAL: A (95-100)
  Visual Growth Reduction (%) 21 Days After Application, GALAP: B (85-94)
  Visual Growth Reduction (%) 21 Days After Application, STEME: E (45-59)
  Visual Growth Reduction (%) 21 Days After Application, VIOTR: A (95-100)
[2]; 70 g ai/ha
  Visual Growth Reduction (%) 21 Days After Application, CHEAL: A (95-100)
  Visual Growth Reduction (%) 21 Days After Application, GALAP: A (95-100)
  Visual Growth Reduction (%) 21 Days After Application, STEME: D (60-74)
  Visual Growth Reduction (%) 21 Days After Application, VIOTR: A (95-100)
[2]; CHEAL, growth reduction of 50%, probit analysis, 21 days
  GR50, CHEAL: 2 g ai/ha
[2]; CHEAL, growth reduction of 80%, probit analysis, 21 days
  GR80, CHEAL: 6 g ai/ha
[2]; CHEAL, growth reduction of 90%, probit analysis, 21 days
  GR90, CHEAL: 11 g ai/ha
[2]; GALAP, growth reduction of 50%, probit analysis, 21 days
  GR50, GALAP: 11 g ai/ha
[2]; GALAP, growth reduction of 80%, probit analysis, 21 days
  GR80, GALAP: 24 g ai/ha
[2]; GALAP, growth reduction of 90%, probit analysis, 21 days
  GR90, GALAP: 36 g ai/ha
[2]; STEME, growth reduction of 50%, probit analysis, 21 days
  GR50, STEME: 28 g ai/ha
[2]; STEME, growth reduction of 80%, probit analysis, 21 days
  GR80, STEME: >140 g ai/ha
[2]; STEME, growth reduction of 90%, probit analysis, 21 days
  GR90, STEME: >140 g ai/ha
[2]; VIOTR, growth reduction of 50%, probit analysis, 21 days
  GR50, VIOTR: 4 g ai/ha
[2]; VIOTR, growth reduction of 80%, probit analysis, 21 days
  GR80, VIOTR: 7 g ai/ha
[2]; VIOTR, growth reduction of 90%, probit analysis, 21 days
  GR90, VIOTR: 9 g ai/ha

## COC(=O)c1nc(-c2ccc(Cl)c(F)c2OC)cc(N)c1Cl [Compound 20]
LOLSS
  GR50, LOLSS: >140 g ai/ha
  GR80, LOLSS: >140 g ai/ha
  pest or weed control at 35 g/ha: 0 to 29%
  pest or weed control at 70 g/ha: 0 to 29%
  pest or weed control at 140 g/ha: 30 to 44%

## Cc1c(-c2ccc(C(F)(F)F)nc2)nc(C(=O)O)c(Cl)c1N [Compound 51, 4-amino-5-chloro-3-methyl-6′-(trifluoromethyl)-[2,3′-bipyridine]-6-carboxylic acid]
LOLSS
  pest or weed control at 35 g/ha: 0 to 29%
  pest or weed control at 70 g/ha: 0 to 29%

## COC(=O)c1nc(-c2ccc(C(F)(F)F)nc2)c(F)c(N)c1Cl [Compound 59, methyl 4-amino-5-chloro-3-fluoro-6′-(trifluoromethyl)-[2,3′-bipyridine]-6-carboxylate]
LOLSS
  GR50, LOLSS: >140 g ai/ha
  GR80, LOLSS: >140 g ai/ha
  pest or weed control at 35 g/ha: 0 to 29%
  pest or weed control at 70 g/ha: 30 to 44%

## COC(=O)c1nc(-c2ccc(C(F)(F)F)nc2)c(Cl)c(N)c1Cl [Compound 83]
LOLSS
  GR50, LOLSS: 59 g ai/ha
  GR80, LOLSS: 99 g ai/ha
  pest or weed control at 35 g/ha: 0 to 29%
  pest or weed control at 70 g/ha: 60 to 74%

## COC(=O)c1nc(-c2ccc(C3CC3)nc2)c(F)c(N)c1Cl [Compound 49]
LOLSS
  GR50, LOLSS: 15 g ai/ha
  GR80, LOLSS: 31 g ai/ha
  pest or weed control at 35 g/ha: 95 to 100%
  pest or weed control at 70 g/ha: 85 to 94%
  pest or weed control at 140 g/ha: 85 to 94%

## Nc1c(Cl)c(C(=O)O)nc(-c2ccc(C(F)(F)F)nc2)c1Cl [Compound 33]
LOLSS
  GR50, LOLSS: >140 g ai/ha
  GR80, LOLSS: >140 g ai/ha
  pest or weed control at 35 g/ha: 0 to 29%
  pest or weed control at 70 g/ha: 0 to 29%
  pest or weed control at 140 g/ha: 30 to 44%

## Nc1c(F)c(-c2ccc(OC(F)F)nc2)nc(C(=O)O)c1Cl [Compound 66]
LOLSS
  GR50, LOLSS: >140 g ai/ha
  GR80, LOLSS: >140 g ai/ha
  pest or weed control at 35 g/ha: 0 to 29%
  pest or weed control at 70 g/ha: 0 to 29%
  pest or weed control at 140 g/ha: 30 to 44%

## COC(=O)c1nc(-c2ccc(Cl)c(F)c2OC)c(F)c(N)c1Cl [Compound 39, methyl 4-amino-3-chloro-6-(4-chloro-3-fluoro-2-methoxyphenyl)-5-fluoropicolinate]
LOLSS
  pest or weed control at 35 g/ha: 0 to 29%
  pest or weed control at 70 g/ha: 0 to 29%
  pest or weed control at 140 g/ha: 0 to 29%
